Measurements taken from US4528392A, “Aromatic compounds as antiallergic agents” (American Home Products Corporation, priority 1984, dated 1985).

What was measured:
[1] = tested on: synthesis of 5-HETE by rat glycogen-elicited polymorphonuclear leukocytes (lipoxygenase); assay: inhibition of 5-HETE synthesis by rat glycogen-elicited polymorphonuclear leukocytes; assay type: cell-based, rat (female Wistar); conditions: Leukocyte, read-out: 50% Inhibitory Concentration (IC50) 5-HETE; rat peritoneal PMN, A23187 10 μM, [14C]arachidonic acid, 10 min preincubation at 37° C.
Method: (§1) Roy. […] Med., 74, 831 (1981)]. […] The assay is carried out as follows: Peritoneal PMN are obtained from female Wistar rats (150-250 g) that received an i.p. injection of 6% glycogen (10 ml). After 24 hours, rats are killed by CO2 asphyxiation and peritoneal cells are harvested by peritoneal lavage using Ca^++ and Mg^++ free Hanks' balanced salt solution (HBSS). The peritoneal exudate is centrifuged at 400 g for 10 minutes. […] To 1 ml portions of cell suspension, test drugs or vehicle are added and incubated at 37° C. for 10 minutes. […] The reaction is stopped by the addition of ice cold water (3 ml) and acidifying to pH 3.5. Lipoxygenase products are then extracted twice into diethyl ether.

[2] = tested on: synthesis of LTB4 by rat glycogen-elicited polymorphonuclear leukocytes (lipoxygenase); assay: inhibition of LTB4 (5,12-diHETE) synthesis by rat glycogen-elicited polymorphonuclear leukocytes; assay type: cell-based, rat (female Wistar); conditions: Leukocyte, read-out: 50% Inhibitory Concentration (IC50) LTB4; rat peritoneal PMN, A23187 10 μM, [14C]arachidonic acid, 10 min preincubation at 37° C.
Method: as §1

[3] = tested on: ovalbumin induced bronchospasm mediated by endogenous products of the lipoxygenase oxidation of arachidonic acid; assay: in vivo inhibition of ovalbumin induced bronchospasm in guinea pigs by endogenous mediators; parameters: species or system guinea pig (male Hartley); conditions: 50 mg/kg intraduodenal, 10 minutes before ovalbumin challenge, indomethacin and chlorpheniramine pretreated
Method: The assay of this Example measures the in vivo ability of the compounds of the invention to inhibit the bronchospasm induced in guinea pigs by endogenous mediators of the bronchoconstriction.
The assay is carried out as follows:
Male Hartley strain guinea pigs weighing 350-600 g are sensitized to ovalbumin (OA) (5 mg i.p. and 5 mg s.c.) on day 0. Three to five weeks later, the animals are anesthetized with pentobarbital sodium (50 mg/kg, i.p.). The jugular vein is cannulated for injection of drugs and the carotid artery for monitoring blood pressure. The trachea is cannulated for artificial ventilation by miniature Staring pump and for indirect measurement of respiratory volume changes as described, infra. Additional pentobarbital sodium (15 mg/kg, i.v.) is administered to arrest spontaneous respiration. A cyclooxygenase inhibitor, indomethacin (10 mg/kg in tris buffer, i.v. at 9 min.) is administered to shunt arachidonic metabolism to lipoxygenase pathways. One minute later, chlorpheniramine (1.0 mg/kg in saline, i.v.) is given to attenuate the histaminic component of anaphylactic bronchoconstriction. Test drugs are administered either intravenously, intraduodenally or by aerosol at 2 or 10 minutes before antigen challenge. Anaphylactic bronchoconstriction is induced by administration of aerosolized OA (1%). Aerosols of OA or soluble drug are produced in-line for 10 seconds only by actuation of an ultrasonic nebulizer (Monaghan). Aerosolized drug dosage is expressed in terms of solution concentration and by a fixed aerosol exposure time (approximately10 seconds). Control animals receive saline in place of drug.
(§2) Respiratory volume changes are determined by a calibrated piston whose travel is recorded, via a linear transducer, on a Beckman Dynograph recorder. Maximal bronchoconstrictor volume is determined by clamping off the trachea at the end of the experiment. Overflow volumes at minutes 1, 3 and 5 are obtained from the recorded charts.
The overflow volume at 1, 3 and 5 minutes is expressed as a percentage of maximal bronchoconstriction. Combined group values are used from each of these time intervals to determine the inhibitory effect of drugs. [formula] Students t-test for unpaired data is used to determine statistical significance. Dose response curves are generated and ED50 doses are interpolated from the regression lines.
The results for three compounds of the invention, with administration of the compounds at 10 minutes before ovalbumin challenge are presented below: […]

[4] = tested on: LTD4 induced bronchoconstriction; assay: in vivo inhibition of bronchospasm induced in guinea pigs by exogenously administered leukotriene (LTD4); parameters: species or system guinea pig (male Hartley); conditions: 50 mg/kg intraduodenal, 10 minutes before induction of bronchospasm by LTD4
Method: The assay of this Example measures the in vivo ability of the compounds of the invention to inhibit the bronchospasm induced in guinea pigs by the exogenously administered leukotrienes C4 and/or D4. This assay is essentially a measure of the SRS-A antagonist properties of the compounds tested.
This assay is carried out as follows:
Male Hartley strain guinea pigs (350-600 g) are anesthetized with pentobarbital sodium (50 mg/kg, i.p.). The jugular vein is cannulated for injection of drugs and the carotid artery for monitoring blood pressure. The trachea is cannulated for artificial ventilation by a miniature Starling pump and for indirect measurement of respiratory volume changes as described infra. Additional pentobarbital sodium (15 mg/kg, i.v.) is administered to arrest spontaneous respiration. Submaximal bronchoconstrictor responses are established in control animals by varying the dose-levels of leukotriene. Intravenous dose-levels for LTC4 range from 1 to 2 μg/kg and for LTD4 the range is from 0.3 to 1 μg/kg. The aerosol bronchoprovocation dose for LTC4 is generated from 1.6 μM solution and for LTD4 from a 2.0 μM solution.
Test drugs are administered either intravenously, intraduodenally, by aerosol or orally at 1 or 10 minutes before induction of bronchospasm by administration of either LTC4 or LTD4 at the predetermined dose-levels. Aerosols of soluble drugs or leukotrienes are produced in-line for 10 seconds only by actuation of an ultrasonic nebulizer (Monaghan). Aerosolized drug dosage is expressed in terms of solution concentration and by a fixed aerosol exposure time (approximately 10 seconds). Control animals receive saline in place of drug.
as §2, with “at” for “at minutes”, “5 minutes” for “5”
The overflow volume at 1, 3 and 5 minutes is expressed as a percentage of maximal bronchoconstriction. […]

SMILES	IC50 [1] [µM]	IC50 [2] [µM]	% Inhibition Overflow Volume at 1 min. [3] [%]	% Inhibition Overflow Volume at 3 min. [3] [%]	% Inhibition Overflow Volume at 5 min. [3] [%]	% Inhibition Overflow Volume at 1 min. ([4]; 1 min.) [%]	% Inhibition Overflow Volume at 3 min. ([4]; 3 min.) [%]	% Inhibition Overflow Volume at 5 min. ([4]; 5 min.) [%]
CCCCCCc1ccc(OCc2cccc(NC(=O)CC(=O)OC)c2)cc1OC [Example 8b, 3-[[3-[(4-hexyl-3-methoxyphenoxy)methyl]phenyl]amino]-3-oxopropanoic acid, methyl ester]	1.59	1.7	–	–	–	–	–	–
COC(=O)CCC(=O)Nc1cccc(COc2ccc(C(C)=O)c(O)c2)c1 [Example 2, 4-[[3-[(4-acetyl-3-hydroxyphenoxy)methyl]phenyl]amino]-4-oxobutanoic acid, methyl ester]	–	–	93	24	35	–	–	–
CCCCCC(=O)c1ccc(OCc2cccc(NC(=O)CCC(=O)OC)c2)cc1OC [Example 6c, 4-[[3-[[3-methoxy-4-(1-oxohexyl)phenoxy]methyl]phenyl]amino]-4-oxobutanoicacid, methyl ester]	3.71	3.87	–	–	–	–	–	–
NC1=NN(c2cccc(C(F)(F)F)c2)CC1 [BW755C, reference compound]	43	30	–	–	–	–	–	–
CCc1ccc(OCc2cccc(NC(=O)CCC(=O)OC)c2)cc1OC [Example 7, 4-[[3-[(4-ethyl-3-methoxyphenoxy)methyl]phenyl]amino]-4-oxobutanoic acid, methyl ester]	5.6	7.09	–	–	–	–	–	–
COC(=O)CC(=O)Nc1cccc(COc2ccc(C(C)=O)c(O)c2)c1 [Example 1, 3-[[3-[(4-acetyl-3-hydroxyphenoxy)methyl]phenyl]amino]-3-oxopropanoic acid, methyl ester]	14.2	11.7	99	77	63	25	48	56
COC(=O)CC(=O)Nc1cccc(COc2ccc(C(C)=O)c(OC)c2)c1 [Example 4, 3-[[3-[(4-acetyl-3-methoxyphenoxy)methyl]phenyl]amino]-3-oxopropanoic acid, methyl ester]	–	–	88	67	46	–	–	–
